Assay results published in the supplement of paper PMC11616607.

Key:
Assay in all cases: drug sensitivity score (DSS) from 5-point dose-response viability curve (DSS (area-under-curve based score)); higher = more sensitive (stronger growth inhibition or killing); extreme values may be limits of the assay
Conditions in all cases: exposure time: 72 h; concentration range: 5 concentrations over 10,000-fold range
OVCAR5 = test system: OVCAR5
Outline: (§1)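 For the drug sensitivity score, obtained per cell line and drug in Breeze software, larger values mean greater sensitivity. No response corresponds to a score of zero. Ovarian cancer and normal ovarian cells were seeded at 1,500 per well into 384-well plates already holding acoustically dispensed drugs (Echo 550, DMSO or water, five concentrations over a 10,000-fold range) and incubated 3 days at 37°C, 5% CO2. CellTiter-Glo luminescence on a PHERAstar FS gave the viability readout.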

CAOV3 = test system: CAOV3
Outline: as §1

OVCAR8 = test system: OVCAR8
Outline: as §1

COV362 = test system: COV362
Outline: as §1

JHOS2 = test system: JHOS2
Outline: as §1

HOSE1C = test system: HOSE1C
Outline: as §1

Ovsaho = test system: Ovsaho
Outline: as §1

Kuramochi = test system: Kuramochi
Outline: as §1

OVCAR4 = test system: OVCAR4
Outline: as §1

COV318 = test system: COV318
Outline: as §1

HOSE2C = test system: HOSE2C
Outline: as §1

OV90 = test system: OV90
Outline: as §1

Row | Compound | drug sensitivity score (OVCAR5) | drug sensitivity score (CAOV3) | drug sensitivity score (OVCAR8) | drug sensitivity score (COV362) | drug sensitivity score (JHOS2) | drug sensitivity score (HOSE1C) | drug sensitivity score (Ovsaho) | drug sensitivity score (Kuramochi) | drug sensitivity score (OVCAR4) | drug sensitivity score (COV318) | drug sensitivity score (HOSE2C) | drug sensitivity score (OV90)
1 | CC(C)Oc1ccc(C(=O)N[C@H](CNC(=O)CN(C)C)Cc2ccc(-c3cn4cccc([C@H](C)O)c4n3)cc2)cc1Cl | 16.3 | 17.5 | 14 | 6 | 7.2 | 14.1 | 10.2 | 9 | 4.2 | 3.9 | 11.1 | 12
2 | CCn1c(-c2nonc2N)nc2cnc(Oc3cccc(NC(=O)c4ccc(OCCN5CCOCC5)cc4)c3)cc21 | 2.2 | 1.6 | 4.4 | 0.2 | 2.8 | 12.7 | 0.9 | 2.1 | 0.6 | 5.7 | 6 | 5.1
3 | CNc1ncc2cc(-c3cc(NC(=O)NCCC(C)(C)C)c(F)cc3C)c(C)nc2n1 | 11.3 | 7.9 | 9.9 | 4.2 | 10.3 | 4.2 | 8.9 | 8.7 | 3.7 | 0.8 | 5 | 24.4
4 | CO[C@@H](C)Cn1c(=O)n(C)c2cnc3ccc(-c4cncc(C(C)(C)O)c4)cc3c21 | 8.7 | 9.2 | 9.5 | 3.8 | 7.8 | 15.1 | 10.9 | 8.3 | 9.8 | 6.8 | 9.9 | 11.9
5 | COc1ccc(Cn2ccc3ccc(C(=O)NO)cc32)cc1 | 0.7 | 1.1 | 3.7 | 0 | 0.1 | 2.5 | 2.6 | 1.2 | 3.6 | 0 | 1.5 | 1.8
6 | C[C@@H](Oc1ccc2[nH]nc(/C=C/c3cnn(CCO)c3)c2c1)c1c(Cl)cncc1Cl | 5.5 | 6.9 | 3.4 | 2.2 | 2 | 8.5 | 4.9 | 1.8 | 2.5 | 2.3 | 22.7 | 5.3
7 | C[C@@H]1CN(CC(=O)Nc2ccc3c(c2)Cc2cccc(-c4cc(=O)cc(N5CCOCC5)o4)c2S3)C[C@H](C)O1 | 1.6 | 1.1 | 1.9 | 1.2 | 0 | 0 | 3.4 | 0.5 | 0.7 | 0 | 0 | 2.7
8 | Cc1c(Cn2c(C)nc3c(C(=O)O)cc(N4CCOCC4)cc32)cccc1C(F)(F)F | 0 | 0 | 0 | 0 | 0 | 1.2 | 3.8 | 3.7 | 0 | 0 | 0 | 0
9 | Cc1cccc(CC(=O)N2CCc3c2ccc(-c2cn(C)c4ncnc(N)c24)c3F)n1 | 0 | 0.4 | 1.5 | 0 | 0 | 0 | 0 | 0.2 | 1.1 | 0 | 0 | 0
10 | Cc1ncc(Cl)cc1NCc1ccc(C(=O)N[C@@H](CC2CCCC2)C(=O)NC2CC2)s1 | 0 | 0 | 0 | 0 | 0 | 0 | 0 | 0.4 | 0 | 0 | 0 | 0.1
11 | Cn1cc(-c2ccc(F)c(C(F)(F)F)c2)nc1C1CCN(c2ncnc3[nH]ncc23)CC1 | 0 | 0 | 0.1 | 0 | 0 | 1.9 | 0 | 0 | 0 | 0 | 3.2 | 0
12 | Cn1cc(C2=Nc3cc(NC(=O)C(N)C4CCCCC4)cc4c3C2=CNNC4=O)cn1 (configuration not stated) | 6.4 | 11 | 14.7 | 5.2 | 5.1 | 13.5 | 6.8 | 7.3 | 15.4 | 6.2 | 18.3 | 11.6
13 | NCC(=O)Nc1ccc(-n2nc(C(F)(F)F)cc2-c2ccc3c(ccc4ccccc43)c2)cc1 | 0 | 1 | 2.7 | 0 | 1.5 | 21.7 | 4.9 | 1.4 | 0 | 2.8 | 8.9 | 0.1
14 | O=C(NOC[C@H](O)CO)c1ccc(F)c(F)c1Nc1ccc(I)cc1F | 9.7 | 11.7 | 1.7 | 2.4 | 3.2 | 0 | 13.5 | 5.2 | 2.1 | 0 | 0.4 | 21.6
15 | O=C(O)c1ccc(-c2c[nH]c3ncc(-c4ccccc4)cc23)cc1C1CCCC1 | 1.4 | 2.3 | 0.3 | 0.1 | 0 | 0 | 0 | 0 | 0 | 0 | 1.2 | 1.2
16 | O=C(O)c1ccc(CN2CCC(CN[C@@H]3C[C@H]3c3ccccc3)CC2)cc1 | 0 | 0 | 0 | 0 | 0 | 0 | 0 | 0 | 0.3 | 0 | 0 | 0
